From ChEMBL document CHEMBL6127048, “Water-soluble and predictable-release triptolide prodrugs block bleomycin-induced pulmonary fibrosis in mice” (Eur J Med Chem, 2024)
≈ marks a conversion by molar mass, not a printed value. Calls of active or inactive are those of the source. The calls are words filed in the database; no cut-off is given here.

What was measured:
[1] = Solubility of compound in water by HPLC analysis; assay type: physicochemical
[2] = Stability of compound in PBS buffer at pH 7.4 assessed as half life; assay type: physicochemical
[3] = Stability in mouse plasma assessed as half life measured upto 24 hrs by HPLC analysis; assay type: ADME, cell-free
[4] = Stability in human plasma assessed as half life measured upto 24 hrs by HPLC analysis; assay type: ADME, cell-free
[5] = Cytotoxicity in human HLF upto 0.625 uM; assay type: toxicity, cell-based
HLF [6] = test: Upregulation of ADAM 10 expression in TGF-beta1-induced human HLF at 5 to 20 nM; assay type: functional, cell-based; details: dose 5-20 nM
HLF [7] = test: Inhibition of sEphrin-B2 expression level in human HLF at 20 nM; assay type: functional, cell-based
HLF [8] = test: Inhibition of TGF-betal induced alpha-SMA production in human HLF at 5 to 20 nM incubated for 2 hrs by DAPI staining based laser scanning confocal microscopic analysis; assay type: functional, cell-based; details: dose 5-20 nM
[9] = AUC (0 to infinity) in Kunming mouse at 1 mg/kg, iv measured upto 48 hrs by LC/MS analysis; assay type: ADME, organism-based; details: in vivo
[10] = Half life in Kunming mouse at 1 mg/kg, iv measured upto 48 hrs by LC/MS analysis; assay type: ADME, organism-based; details: in vivo
[11] = MRT (0 to t) in Kunming mouse at 1 mg/kg, iv measured upto 48 hrs by LC/MS analysis; assay type: ADME, organism-based; details: in vivo
[12] = MRT(0 to infinity) in Kunming mouse at 1 mg/kg, iv measured upto 48 hrs by LC/MS analysis; assay type: ADME, organism-based; details: in vivo
[13] = Volume of distribution in Kunming mouse at 1 mg/kg, iv measured upto 48 hrs by LC/MS analysis; assay type: ADME, organism-based; details: in vivo
[14] = Clearance in Kunming mouse at 1 mg/kg, iv measured upto 48 hrs by LC/MS analysis; assay type: ADME, organism-based; details: in vivo
[15] = Prodrug conversion of the compound in phosphate buffer saline at pH 6.5 assessed as (6aS,7aS,8R,8aR,9aS,9bS,10aS,10bS)-8-hydroxy-8a-isopropyl-10b-methyl-2,5,5b,6,6a,8,8a,9a,9b,10b-decahydrotris(oxireno)[2',3':4b,5;2'',3'':6,7;2''',3''':8a,9]phenanthro[1,2-c]furan-3(1H)-one formation by measuring half life; assay type: ADME
[16] = Prodrug conversion of the compound in phosphate buffer saline at pH 7.4 assessed as (6aS,7aS,8R,8aR,9aS,9bS,10aS,10bS)-8-hydroxy-8a-isopropyl-10b-methyl-2,5,5b,6,6a,8,8a,9a,9b,10b-decahydrotris(oxireno)[2',3':4b,5;2'',3'':6,7;2''',3''':8a,9]phenanthro[1,2-c]furan-3(1H)-one formation by measuring half life; assay type: ADME
[17] = Prodrug conversion of the compound in phosphate buffer saline at pH 8 assessed as (6aS,7aS,8R,8aR,9aS,9bS,10aS,10bS)-8-hydroxy-8a-isopropyl-10b-methyl-2,5,5b,6,6a,8,8a,9a,9b,10b-decahydrotris(oxireno)[2',3':4b,5;2'',3'':6,7;2''',3''':8a,9]phenanthro[1,2-c]furan-3(1H)-one formation by measuring half life; assay type: ADME
Mus musculus [18] = test: Anti-fibrotic activity in bleomycin-induced pulmonary fibrosis C57BL/6 mouse model assessed as increase in body weight at 0.33 mg/kg, ip pretreated with bleomycin for 5 days and followed by compound administration for 14 days; assay type: functional, organism-based; details: time 14.0 day
Mus musculus [19] = test: Anti-fibrotic activity in bleomycin-induced pulmonary fibrosis C57BL/6 mouse model assessed as decrease in lung index at 0.33 mg/kg, ip pretreated with bleomycin for 5 days and followed by compound administration for 15 days; assay type: functional, organism-based; details: time 15.0 day
[20] = Toxicity in C57BL/6 mouse assessed as change in ALT level at 0.33 mg/kg, ip measured after 15 days; assay type: organism-based; details: in vivo, 360 h, time 15 day
[21] = Toxicity in C57BL/6 mouse assessed as change in AST level at 0.33 mg/kg, ip measured after 15 days; assay type: organism-based; details: in vivo, 360 h, time 15 day
[22] = Toxicity in C57BL/6 mouse assessed as change in creatinine level at 0.33 mg/kg, ip measured after 15 days; assay type: organism-based; details: in vivo, 360 h, time 15 day
[23] = Toxicity in C57BL/6 mouse assessed as change in BUN level at 0.33 mg/kg, ip measured after 15 days; assay type: organism-based; details: in vivo, 360 h, time 15 day
[24] = Toxicity in C57BL/6 mouse assessed as pathological changes in liver at 0.33 mg/kg, ip measured after 15 days; assay type: organism-based; details: in vivo, 360 h, time 15 day
[25] = Toxicity in C57BL/6 mouse assessed as pathological changes in kidney at 0.33 mg/kg, ip measured after 15 days; assay type: organism-based; details: in vivo, 360 h, time 15 day
Mus musculus [26] = test: Anti-fibrotic activity in bleomycin-induced pulmonary fibrosis C57BL/6 mouse model assessed as infiltrated interstitial matrix in lung at 0.33 mg/kg, ip pretreated with bleomycin for 5 days and followed by compound administration for 15 days by H and E staining based analysis; assay type: functional, organism-based; details: time 15.0 day
Mus musculus [27] = test: Anti-fibrotic activity in bleomycin-induced pulmonary fibrosis C57BL/6 mouse model assessed as infiltrated interstitial matrix in lung at 60 mg/kg, po pretreated with bleomycin for 5 days and followed by compound administration for 15 days by H and E staining based analysis; assay type: functional, organism-based; details: time 15.0 day
Mus musculus [28] = test: Anti-fibrotic activity in bleomycin-induced pulmonary fibrosis C57BL/6 mouse model assessed as appearance of red collagen deposits in lung at 0.33 mg/kg, ip pretreated with bleomycin for 5 days and followed by compound administration for 15 days by H and E staining based analysis; assay type: functional, organism-based; details: time 15.0 day
Mus musculus [29] = test: Anti-fibrotic activity in bleomycin-induced pulmonary fibrosis C57BL/6 mouse model assessed as attenuation of collagen accumulation in lung at 0.33 mg/kg, ip pretreated with bleomycin for 5 days and followed by compound administration for 15 days by Masson staining based analysis; assay type: functional, organism-based; details: time 15.0 day
Mus musculus [30] = test: Anti-fibrotic activity in bleomycin-induced pulmonary fibrosis C57BL/6 mouse model at 0.66 mg/kg, ip pretreated with bleomycin for 5 days and followed by compound administration for 15 days; assay type: functional, organism-based; details: time 15.0 day
Mus musculus [31] = test: Anti-fibrotic activity in bleomycin-induced pulmonary fibrosis C57BL/6 mouse model assessed as decrease in myofibroblast by measuring alpha-SMA level at 0.33 to 0.66 mg/kg, ip pretreated with bleomycin for 5 days and followed by compound administration for 15 days; assay type: functional, organism-based; details: dose 0.33-0.66 mg/kg, time 15.0 day
Mus musculus [32] = test: Anti-fibrotic activity in bleomycin-induced pulmonary fibrosis C57BL/6 mouse model assessed as decrease in hydroxyproline level in lung at 0.33 to 0.66 mg/kg, ip pretreated with bleomycin for 5 days and followed by compound administration for 15 days; assay type: functional, organism-based; details: dose 0.33-0.66 mg/kg, time 15.0 day
Mus musculus [33] = test: Anti-fibrotic activity in bleomycin-induced pulmonary fibrosis C57BL/6 mouse model assessed as decrease in hydroxyproline level in lung at 0.33 to 0.66 mg/kg, ip pretreated with bleomycin from day 1 and followed by compound administration for 15 days; assay type: functional, organism-based; details: dose 0.33-0.66 mg/kg, time 15.0 day
Mus musculus [34] = test: Anti-fibrotic activity in bleomycin-induced pulmonary fibrosis C57BL/6 mouse model assessed as decrease in TGF-beta1 level in BALF at 0.66 mg/kg, ip pretreated with bleomycin for 5 days and followed by compound administration for 15 days by ELISA analysis; assay type: functional, organism-based; details: time 15.0 day
Mus musculus [35] = test: Anti-fibrotic activity in bleomycin-induced pulmonary fibrosis C57BL/6 mouse model assessed as decrease in TGF-beta1 level in BALF at 0.66 mg/kg, ip pretreated with bleomycin from day 1 and followed by compound administration for 15 days by ELISA analysis; assay type: functional, organism-based; details: time 15.0 day
Mus musculus [36] = test: Anti-fibrotic activity in bleomycin-induced pulmonary fibrosis C57BL/6 mouse model assessed as downregulation of ADAM 10 level in BALF at 0.66 mg/kg, ip pretreated with bleomycin for 5 days and followed by compound administration for 15 days by ELISA analysis; assay type: functional, organism-based; details: time 15.0 day
Mus musculus [37] = test: Anti-fibrotic activity in bleomycin-induced pulmonary fibrosis C57BL/6 mouse model assessed as downregulation of sEphrin-B2 level in BALF at 0.33 to 0.66 mg/kg, ip pretreated with bleomycin for 5 days and followed by compound administration for 15 days by ELISA analysis; assay type: functional, organism-based; details: dose 0.33-0.66 mg/kg, time 15.0 day
Mus musculus [38] = test: Anti-fibrotic activity in bleomycin-induced pulmonary fibrosis C57BL/6 mouse model assessed as increase in body weight at 60 mg/kg, po pretreated with bleomycin for 5 days and followed by compound administration for 14 days; assay type: functional, organism-based; details: time 14.0 day
Mus musculus [39] = test: Anti-fibrotic activity in bleomycin-induced pulmonary fibrosis C57BL/6 mouse model assessed as decrease in lung index at 60 mg/kg, po pretreated with bleomycin for 5 days and followed by compound administration for 15 days; assay type: functional, organism-based; details: time 15.0 day
Mus musculus [40] = test: Anti-fibrotic activity in bleomycin-induced pulmonary fibrosis C57BL/6 mouse model assessed as appearance of red collagen deposits in lung at 60 mg/kg, po pretreated with bleomycin for 5 days and followed by compound administration for 15 days by H and E staining based analysis; assay type: functional, organism-based; details: time 15.0 day
Mus musculus [41] = test: Anti-fibrotic activity in bleomycin-induced pulmonary fibrosis C57BL/6 mouse model assessed as decrease in myofibroblast by measuring alpha-SMA level at 60 mg/kg, po pretreated with bleomycin for 5 days and followed by compound administration for 15 days; assay type: functional, organism-based; details: time 15.0 day
Mus musculus [42] = test: Anti-fibrotic activity in bleomycin-induced pulmonary fibrosis C57BL/6 mouse model assessed as decrease in hydroxyproline level in lung at 60 mg/kg, po pretreated with bleomycin for 5 days and followed by compound administration for 15 days; assay type: functional, organism-based; details: time 15.0 day
Mus musculus [43] = test: Anti-fibrotic activity in bleomycin-induced pulmonary fibrosis C57BL/6 mouse model assessed as decrease in hydroxyproline level in lung at 60 mg/kg, po pretreated with bleomycin from day 1 and followed by compound administration for 15 days; assay type: functional, organism-based; details: time 15.0 day

CC(C)[C@]12O[C@H]1[C@@H]1O[C@]13[C@]1(O[C@H]1C[C@H]1C4=C(CC[C@@]13C)C(=O)OC4)[C@@H]2OC(=O)NC1CCCCC1N (some centres not stated)
solubility [1]: 6.96 mg/mL (≈ 13.9 mM) | half-life [2]: 1.85 h | half-life [3]: 1.62 h | half-life [4]: 1.69 h

CC(C)[C@]12O[C@H]1[C@@H]1O[C@]13[C@]1(O[C@H]1C[C@H]1C4=C(CC[C@@]13C)C(=O)OC4)[C@@H]2OC(=O)NCC1CCCN1 (some centres not stated)
solubility [1]: 8.99 mg/mL (≈ 18.5 mM) | half-life [2]: 2.46 h | half-life [3]: 1.79 h | half-life [4]: 1.45 h

CNCCN(C)C(=O)O[C@@H]1[C@@]2(C(C)C)O[C@H]2[C@@H]2O[C@]23[C@]12O[C@H]2C[C@H]1C2=C(CC[C@@]13C)C(=O)OC2
solubility [1]: 30.8 mg/mL (≈ 64.9 mM) | Activity [5]: Non-Toxic | Activity (HLF [6]): Active | inhibition (HLF [7]): Active | inhibition (HLF [8]): Active | AUC(0-inf) [9]: 1100 ng·h/mL | t1/2 [10]: 7.72 h | MRT last at 48 h [11]: 11.5 h | MRT inf [12]: 14.8 h | Vd [13]: 0.119 L/kg | CL [14]: 15.2 mL/min/kg | half-life [2]: 17.7 h | half-life [3]: 17 h | half-life [4]: 16.4 h | t1/2 [15]: 81.7 h | t1/2 [16]: 17.7 h | t1/2 [17]: 4.52 h | Activity (Mus musculus [18]): Active | Activity (Mus musculus [19]): Active | Activity [20]: Non-Toxic | Activity [21]: Non-Toxic | Activity [22]: Non-Toxic | Activity [23]: Non-Toxic | Activity [24]: Non-Toxic | Activity [25]: Non-Toxic | Activity (Mus musculus [26]): Active | Activity (Mus musculus [27]): Active | Activity (Mus musculus [28]): Active | Activity (Mus musculus [29]): Active | Activity (Mus musculus [30]): Active | Activity (Mus musculus [31]): Active | Activity (Mus musculus [32]): Active | Activity (Mus musculus [33]): Active | Activity (Mus musculus [34]): Active | Activity (Mus musculus [35]): Active | Activity (Mus musculus [36]): Active | Activity (Mus musculus [37]): Active

CC(C)[C@]12O[C@H]1[C@@H]1O[C@]13[C@]1(O[C@H]1C[C@H]1C4=C(CC[C@@]13C)C(=O)OC4)[C@@H]2OCOP(=O)([O-])[O-].[Na+].[Na+] [MINNELIDE]
solubility [1]: 93.3 mg/mL

COC(=O)c1ccc2c(c1)NC(=O)/C2=C(\Nc1ccc(N(C)C(=O)CN2CCN(C)CC2)cc1)c1ccccc1
Activity (Mus musculus [38]): Active | Activity (Mus musculus [39]): Active | Activity (Mus musculus [40]): Active | Activity (Mus musculus [41]): Active | Activity (Mus musculus [42]): Active | Activity (Mus musculus [43]): Active

CC(C)[C@]12O[C@H]1[C@@H]1O[C@]13[C@]1(O[C@H]1C[C@H]1C4=C(CC[C@@]13C)C(=O)OC4)[C@@H]2OC(=O)NCCN
solubility [1]: 12.5 mg/mL (≈ 28 mM) | half-life [2]: 25.2 h | half-life [3]: 27.3 h | half-life [4]: 24.5 h

CC(C)[C@]12O[C@H]1[C@@H]1O[C@]13[C@]1(O[C@H]1C[C@H]1C4=C(CC[C@@]13C)C(=O)OC4)[C@@H]2OC(=O)CCC(=O)[O-].[Na+] [OMTRIPTOLIDE SODIUM]
solubility [1]: 1.39 mg/mL
